Results published in patent US20230146675A1, “PYRIMIDO[5,4-d]PYRIMIDINE DERIVATIVES AS ENT INHIBITORS FOR THE TREATMENT OF CANCERS, AND COMBINATION THEREOF WITH ADENOSINE RECEPTOR ANTAGONISTS” (ITEOS BELGIUM SA, priority 2020, published 2023).
pIC50: −log10 of the molar value.

Target: T1, human ENT1 (Homo sapiens, UniProt Q99808)
T1 sequence (Q99808 1-456): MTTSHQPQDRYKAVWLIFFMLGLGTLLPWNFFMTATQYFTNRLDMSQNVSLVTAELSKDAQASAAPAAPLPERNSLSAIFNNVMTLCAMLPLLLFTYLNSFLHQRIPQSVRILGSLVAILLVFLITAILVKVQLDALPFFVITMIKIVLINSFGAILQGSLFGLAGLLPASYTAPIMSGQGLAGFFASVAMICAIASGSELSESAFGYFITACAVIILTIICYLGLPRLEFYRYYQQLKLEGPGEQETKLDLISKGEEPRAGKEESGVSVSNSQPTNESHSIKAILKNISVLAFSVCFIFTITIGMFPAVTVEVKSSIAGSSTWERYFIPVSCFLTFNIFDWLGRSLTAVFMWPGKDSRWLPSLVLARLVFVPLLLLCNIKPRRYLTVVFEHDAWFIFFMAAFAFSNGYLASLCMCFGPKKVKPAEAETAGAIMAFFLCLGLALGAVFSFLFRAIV
Assay: ENT1 binding assay (competition with Sahenta-DY647 on JAR cells)
Set-up: JAR cells expressing ENT1 were bought from ATCC; host or cells: JAR cells
Conditions: binned IC50
Outline: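 JAR cells were incubated with test compounds and the fluorescent ligand Sahenta-DY647 in competition. Plates were washed twice by centrifugation (4 min, 400 rcf, 4 °C). Binding potency was derived from the final fluorescence.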

| Compound | pIC50 |
| --- | --- |
| COCCN(CCOC)c1nc(N2CCC(OC)CC2)c2nc(OCc3ccc(C)nc3)nc(N3CCC(OC)CC3)c2n1 [Compound 263, N,N-bis(2-methoxyethyl)-4,8-bis(4-methoxypiperidin-1-yl)-6-((6-methylpyridin-3-yl)methoxy)pyrimido[5,4-d]pyrimidin-2-amine] | 6.30 to 7.00 |
| CCN(CCN1CCCC1)c1nc(N2CCN(C)C(=O)C2)c2nc(N(CCOC)CCOC)nc(N3CCC(OC)CC3)c2n1 [Compound 267, 4-(6-(bis(2-methoxyethyl)amino)-2-(ethyl(2-(pyrrolidin-1-yl)ethyl)amino)-8-(4-methoxypiperidin-1-yl)pyrimido[5,4-d]pyrimidin-4-yl)-1-methylpiperazin-2-one] | 6.30 to 7.00 |
| COCCN(CCOC)c1nc(N2CCN(C)C(=O)C2)c2nc(N(CCOC)Cc3cc(OC)c(OC)c(OC)c3)nc(N3CCC(OC)CC3)c2n1 [Compound 269, 4-(2-(bis(2-methoxyethyl)amino)-6-((2-methoxyethyl)(3,4,5-trimethoxybenzyl)amino)-8-(4-methoxypiperidin-1-yl)pyrimido[5,4-d]pyrimidin-4-yl)-1-methylpiperazin-2-one] | > 7.00 |
| COCCN(CCOC)c1nc(N2CCN(C)C(=O)C2)c2nc(N(CCO)CCO)nc(N3CCC(OC)CC3)c2n1 [Compound 271, 4-(6-(bis(2-hydroxyethyl)amino)-2-(bis(2-methoxyethyl)amino)-8-(4-methoxypiperidin-1-yl)pyrimido[5,4-d]pyrimidin-4-yl)-1-methylpiperazin-2-one] | 6.00 to 6.30 |
| CCN(CCN1CCCCC1)c1nc(N2CCN(C)C(=O)C2)c2nc(N(CCOC)CCOC)nc(N3CCC(OC)CC3)c2n1 [Compound 272, 4-(6-(bis(2-methoxyethyl)amino)-2-(ethyl(2-(piperidin-1-yl)ethyl)amino)-8-(4-methoxypiperidin-1-yl)pyrimido[5,4-d]pyrimidin-4-yl)-1-methylpiperazin-2-one] | 6.30 to 7.00 |
| COCCN(CCOC)c1nc(N2CCN(C)C(=O)C2)c2nc(N(CCO)CCOC)nc(N3CCC(OC)CC3)c2n1 [Compound 276, 4-(2-(bis(2-methoxyethyl)amino)-6-((2-hydroxyethyl)(2-methoxyethyl)amino)-8-(4-methoxypiperidin-1-yl)pyrimido[5,4-d]pyrimidin-4-yl)-1-methylpiperazin-2-one] | 6.30 to 7.00 |
| COCCN(CCOC)c1nc(N2CCC(OC)CC2)c2nc(N(CCO)CCN(C)C(C)=O)nc(N3CCN(C)C(=O)C3)c2n1 [Compound 277, N-(2-((6-(bis(2-methoxyethyl)amino)-8-(4-methoxypiperidin-1-yl)-4-(4-methyl-3-oxopiperazin-1-yl)pyrimido[5,4-d]pyrimidin-2-yl)(2-hydroxyethyl)amino)ethyl)-N-methylacetamide] | 6.30 to 7.00 |
| COCCN(CCOC)c1nc(N2CCN(C)C(=O)C2)c2nc(N3CCNC(=O)C3)nc(N3CCC(OC)CC3)c2n1 [Compound 278, 4-(2-(bis(2-methoxyethyl)amino)-8-(4-methoxypiperidin-1-yl)-6-(3-oxopiperazin-1-yl)pyrimido[5,4-d]pyrimidin-4-yl)-1-methylpiperazin-2-one] | 6.30 to 7.00 |
| COCCN(CCOC)c1nc(N2CCN(C)C(=O)C2)c2nc(N3CCN(S(C)(=O)=O)CC3)nc(N3CCC(OC)CC3)c2n1 [Compound 279, 4-(2-(bis(2-methoxyethyl)amino)-8-(4-methoxypiperidin-1-yl)-6-(4-(methylsulfonyl)piperazin-1-yl)pyrimido[5,4-d]pyrimidin-4-yl)-1-methylpiperazin-2-one] | 6.30 to 7.00 |
| COCCN(CCOC)c1nc(N2CCC(OC)CC2)c2nc(N(CCO)CCCS(C)(=O)=O)nc(N3CCN(C)C(=O)C3)c2n1 [Compound 280, 4-(6-(bis(2-methoxyethyl)amino)-2-((2-hydroxyethyl)(3-(methylsulfonyl)propyl)amino)-8-(4-methoxypiperidin-1-yl)pyrimido[5,4-d]pyrimidin-4-yl)-1-methylpiperazin-2-one] | 6.30 to 7.00 |
| COCCN(CCOC)c1nc(N2CCN(C)C(=O)C2)c2nc(N3CCN(C(C)=O)CC3)nc(N3CCC(OC)CC3)c2n1 [Compound 281, 4-(6-(4-acetylpiperazin-1-yl)-2-(bis(2-methoxyethyl)amino)-8-(4-methoxypiperidin-1-yl)pyrimido[5,4-d]pyrimidin-4-yl)-1-methylpiperazin-2-one] | 6.00 to 6.30 |
| COCCN(CCOC)c1nc(N2CCC(OC)CC2)c2nc(N3CCn4ncnc4C3)nc(N3CCN(C)C(=O)C3)c2n1 [Compound 282, 4-(6-(bis(2-methoxyethyl)amino)-2-(5,6-dihydro-[1,2,4]triazolo[1,5-a]pyrazin-7(8H)-yl)-8-(4-methoxypiperidin-1-yl)pyrimido[5,4-d]pyrimidin-4-yl)-1-methylpiperazin-2-one] | 6.30 to 7.00 |
| COCCN(CCOC)c1nc(N2CCN(C)C(=O)C2)c2nc(N3CCn4ncnc4C3)nc(N3CCC(OC)CC3)c2n1 [Compound 283, 4-(2-(bis(2-methoxyethyl)amino)-6-(5,6-dihydro-[1,2,4]triazolo[1,5-a]pyrazin-7(8H)-yl)-8-(4-methoxypiperidin-1-yl)pyrimido[5,4-d]pyrimidin-4-yl)-1-methylpiperazin-2-one] | 6.00 to 6.30 |
| COCCN(CCOC)c1nc(N2CCC(OC)CC2)c2nc(N3CCn4nncc4C3)nc(N3CCN(C)C(=O)C3)c2n1 [Compound 287, 4-(6-(bis(2-methoxyethyl)amino)-2-(6,7-dihydro-[1,2,3]triazolo[1,5-a]pyrazin-5(4H)-yl)-8-(4-methoxypiperidin-1-yl)pyrimido[5,4-d]pyrimidin-4-yl)-1-methylpiperazin-2-one] | 6.30 to 7.00 |
| COCCN(CCOC)c1nc(N2CCN(C)C(=O)C2)c2nc(N3CCn4nncc4C3)nc(N3CCC(OC)CC3)c2n1 [Compound 288, 4-(2-(bis(2-methoxyethyl)amino)-6-(6,7-dihydro-[1,2,3]triazolo[1,5-a]pyrazin-5(4H)-yl)-8-(4-methoxypiperidin-1-yl)pyrimido[5,4-d]pyrimidin-4-yl)-1-methylpiperazin-2-one] | 6.30 to 7.00 |

Other lines, results leading:

| pIC50 | Compound |
| --- | --- |
| 6.30 to 7.00 | COCCN(CCOC)c1nc(N2CCC(OC)CC2)c2nc(OCc3ccnc(C)c3)nc(N3CCC(OC)CC3)c2n1 [Compound 262, N,N-bis(2-methoxyethyl)-4,8-bis(4-methoxypiperidin-1-yl)-6-((2-methylpyridin-4-yl)methoxy)pyrimido[5,4-d]pyrimidin-2-amine] |
| > 7.00 | COCCN(CCOC)c1nc(N2CCc3cnn(C)c3C2)c2nc(N(CCOC)CCOC)nc(N3CCN(C)C(=O)C3)c2n1 [Compound 266, 4-(2,6-bis(bis(2-methoxyethyl)amino)-8-(1-methyl-1,4,5,7-tetrahydro-6H-pyrazolo[3,4-c]pyridin-6-yl)pyrimido[5,4-d]pyrimidin-4-yl)-1-methylpiperazin-2-one] |
| > 7.00 | COCCN(Cc1cc(OC)c(OC)c(OC)c1)c1nc(N2CCN(C)C(=O)C2)c2nc(N(CCOC)CCOC)nc(N3CCC(OC)CC3)c2n1 [Compound 268, 4-(6-(bis(2-methoxyethyl)amino)-2-((2-methoxyethyl)(3,4,5-trimethoxybenzyl)amino)-8-(4-methoxypiperidin-1-yl)pyrimido[5,4-d]pyrimidin-4-yl)-1-methylpiperazin-2-one] |
| 6.30 to 7.00 | COCCN(CCOC)c1nc(N2CCC(OC)CC2)c2nc(N(CCO)CCO)nc(N3CCN(C)C(=O)C3)c2n1 [Compound 270, 4-(2-(bis(2-hydroxyethyl)amino)-6-(bis(2-methoxyethyl)amino)-8-(4-methoxypiperidin-1-yl)pyrimido[5,4-d]pyrimidin-4-yl)-1-methylpiperazin-2-one] |
| > 7.00 | COCCN(CCO)c1nc(N2CCN(C)C(=O)C2)c2nc(N(CCOC)CCOC)nc(N3CCC(OC)CC3)c2n1 [Compound 275, 4-(6-(bis(2-methoxyethyl)amino)-2-((2-hydroxyethyl)(2-methoxyethyl)amino)-8-(4-methoxypiperidin-1-yl)pyrimido[5,4-d]pyrimidin-4-yl)-1-methylpiperazin-2-one] |
| 6.00 to 6.30 | COCCN(CCOC)c1nc(N2CCN(C)C(=O)C2)c2nc(N3CCN(C(=O)OC)CC3)nc(N3CCC(OC)CC3)c2n1 [Compound 284, methyl 4-(6-(bis(2-methoxyethyl)amino)-4-(4-methoxypiperidin-1-yl)-8-(4-methyl-3-oxopiperazin-1-yl)pyrimido[5,4-d]pyrimidin-2-yl)piperazine-1-carboxylate] |
| 6.30 to 7.00 | COCCN(CCn1ccnc1)c1nc(N2CCN(C)C(=O)C2)c2nc(N(CCOC)CCOC)nc(N3CCC(OC)CC3)c2n1 [Compound 285, 4-(2-((2-(1H-imidazol-1-yl)ethyl)(2-methoxyethyl)amino)-6-(bis(2-methoxyethyl)amino)-8-(4-methoxypiperidin-1-yl)pyrimido[5,4-d]pyrimidin-4-yl)-1-methylpiperazin-2-one] |
| 6.30 to 7.00 | COCCN(CCOC)c1nc(N2CCN(C)C(=O)C2)c2nc(N(CCOC)CCn3ccnc3)nc(N3CCC(OC)CC3)c2n1 [Compound 286, 4-(6-((2-(1H-imidazol-1-yl)ethyl)(2-methoxyethyl)amino)-2-(bis(2-methoxyethyl)amino)-8-(4-methoxypiperidin-1-yl)pyrimido[5,4-d]pyrimidin-4-yl)-1-methylpiperazin-2-one] |
